Laboratory results reported in patent publication US7696408B2, “Method to enhance Agrobacterium-mediated transformation of plants” (Regents of the University of Minnesota, priority 1999, dated 2010).
Read-outs that look alike come from different tables or passages of the source.

Experiments:
[1] = system: soybean cot-node explants; assay: GUS transient expression on soybean cot-node explants after 5-day co-cultivation with Agrobacterium (T-DNA delivery); format: cell-based, Glycine max; details: for infection after co-cultivation (experiment #9): 400 mg/l in co-cultivation media, MN0901, AGL1 and LBA4404
From the text: For each seedling, the roots and the majority of the hypocotyl were removed approximately 3-5 mm below the cotyledonary node by cutting the hypocotyl with a scalpel (Hinchee et al., 1998). The two cotyledons were then separated by cutting vertically through the hypocotyl region resulting in two explants. The epicotyl was subsequently removed on both explants, including all primary leaves and shoot meristems, and both the axillary bud and cotyledonary node were wounded by cutting about 10 times with a scalpel blade perpendicular to the hypocotyl. After all explants in a set were wounded (about 50), they were placed in a 25×100 mm petri plate containing 50 ml co-culture suspension for 30 minutes or inoculated into the 25 ml co-cultivation/Agrobacterium suspension for 30 minutes. The explants were then cultured on an agar-solidified co-culture media (0.5%) either without the addition of a test agent (e.g., cysteine) in 15×100 mm petri plates on top a sterile Whatman®#1 filter paper; five explants per plate with adaxial side down. Five plates were stacked together and wrapped in Parafilm®M then incubated at either 22° C. or 25° C. for 5 days in the dark.
After 5 days, the explants were washed in a liquid shoot induction media (B5 salts, MSIII iron stock, 3% sucrose, 3 mM MES, and filter sterilized B5 vitamins, 1.67 mg/l BAP, 100 mg/l cefotaxime, and 500 mg/l ticarcillin; pH 5.6) to remove excess Agrobacterium. Seven to ten explants from each cysteine level were washed in liquid shoot induction medium and placed in GUS histochemical stain (Jefferson et al., 1987). These explants were scored for GUS transient expression. Five to ten explants from each group were imbedded into a single 25×100 mm petri plate with solid shoot induction media (0.8% agar and agent, e.g., 400 mg/l cysteine) containing PPT concentrations of 1.33 mg/l, 3.33 mg/l, or 5.0 mg/l for selection. The plates were then incubated in a growth chamber with a fluctuating temperature between 18° C.-30° C. under a 18 hours light/6 hours dark cycle at 90-150 μE/m^2s.
The level of infection was scored using the GUS gene as a phenotypic marker immediately after co-culture and again after 4 weeks in shoot induction media. As it can be difficult to score the explants after co-cultivation due to the variation among explants and, in some cases, a complete staining of the target tissues, 6 categories were formed to assess the success of infection: • 4) None=There were no GUS positive sectors on any of the explants; • 5) Very low=Not all explants have GUS positive sectors, however, some have discrete foci usually seen on the hypocotyl or cot-node region. • 6) Low=More than ¾ the explants have GUS positive sectors in discrete foci on the hypocotyl and the cot-node region, but the foci are not numerous (<20). • 7) Medium=More than ½ the explants have significant GUS positive sectors at the cot-node region and hypocotyl, some seen as long lines of cells or larger sectors. • 8) Good=More than ¾ the explants have significant staining at the hypocotyl, the entire cot-node region, and on the cotyledons. […] Almost all explants have regions that are completely GUS positive. To reduce bias, samples were chosen at random and the level of infection scored before noting the treatment conditions. Samples that were between two categories are marked accordingly; those samples that resembled one category more than another were marked with a capital “X” and the other with a lowercase “x”.
Wounded soybean cot-node explants prepared from the cultivar ‘Bert’ were co-cultivated with Agrobacterium on solid co-cultivation medium containing various levels of cysteine for 5 days.

[2] = system: Japonica rice meristem cultures; details: individually or in combination; Enríguez-Obregón et al., 1999; cited from earlier work
grape = details: Perl et al., 1996; cited from earlier work
[3] = system: soybean cot-node explants; assay: GUS+ sectors, shoots and shoot primordia after 28 days (4 weeks) on shoot induction medium with PPT (stable transformation); format: cell-based, Glycine max; details: amended to solid co-cultivation media
Procedure: After 5 days, the explants were washed in a liquid shoot induction media (B5 salts, MSIII iron stock, 3% sucrose, 3 mM MES, and filter sterilized B5 vitamins, 1.67 mg/l BAP, 100 mg/l cefotaxime, and 500 mg/l ticarcillin; pH 5.6) to remove excess Agrobacterium. Seven to ten explants from each cysteine level were washed in liquid shoot induction medium and placed in GUS histochemical stain (Jefferson et al., 1987). These explants were scored for GUS transient expression. Five to ten explants from each group were imbedded into a single 25×100 mm petri plate with solid shoot induction media (0.8% agar and agent, e.g., 400 mg/l cysteine) containing PPT concentrations of 1.33 mg/l, 3.33 mg/l, or 5.0 mg/l for selection. The plates were then incubated in a growth chamber with a fluctuating temperature between 18° C.-30° C. under a 18 hours light/6 hours dark cycle at 90-150 μE/m^2s. The explants were removed from the chamber after 14 days and transferred to fresh shoot induction media containing herbicide selection. During the transfer, the hypocotyl was carefully removed from the developing shoot mass and imbedded into the media with the differentiating tissue flush with the media surface. The plates were placed back into the growth chamber for an additional 2 weeks. At the 4 week time point, explants without de novo shoot production were discarded. The cotyledons were then removed from the differentiating tissue by cutting at the base of the node and the callus trimmed before transferring into shoot elongation media containing MS salts (murashige and Skoog, 1962), MSIII iron stock, 3% sucrose, 3 mM MES, 0.8% agar, and filter sterilized B5 vitamins, 50 mg/l asparagine, 100 mg/l pyroglutamic acid, 1 mg/l zeatin riboside, 0.1 mg/l indole-acetic acid, 0.5 mg/l GA3, 100 mg/l cefotaxime, 500 mg/l ticarcillin, 1.3-5 mg/l PPT; pH 5.6). Also at this time, a percentage of the explants were sliced into about 10 sections and stained for both GUS positive sectors and GUS positive shoots. Every 2 weeks the explants were transferred into new shoot elongation media after removing dead plant tissue and the bottom of the explant cut to encourage shoot elongation of transformed shoots. For the 4 week data, the minimum number of transformation events was recorded. Those explants with a GUS positive sector in the differentiating tissue giving rise to shoots were recorded with the number of transformation events in bold and italicized (FIGS. 2-5). Shoot data was obtained by recording the number of fully formed shoots seen on an explant. […] To determine the effect of adding cysteine to the co-cultivation medium on stable transformation, co-cultured explants were cultured for 28 days on a shoot-inducing medium containing the herbicide, phosphinothricin (PPT). During the 28 day incubation, the explants usually form de novo callus and shoots in the cot-node region in a structure referred to as a callus/shoot pad (FIG. 9). The callus/shoot pads were sliced in approximately 5 mm sections, immersed into GUS histochemical stain, and scored for GUS^+ sectors throughout the callus/shoot pad. […] The formation of transgenic shoot primordia and sectors extending into developing shoot tissues were also scored on 28 day sections of explants co-cultivated on 0 and 400 mg/l cysteine (FIG. 10A). Only those GUS^+ shoot primordia with obvious trichomes, which are characteristic to leaf tissue, or GUS^+ sectors originating and extending into the tissue at the base of developing shoots (referred to hereafter as differentiating tissue) were scored (FIG. 1A2).

[4] = Bert, LBA4404 pTOK233, agent in solid co-cultivation media, concentrations of Table 1, 5-day incubation
[5] = agent added to co-cultivation medium

For CSCC[C@H](N)C(=O)O [Methionine], which “infection after co-cultivation (experiment #9)” value [1] is on record?
The value was “did not result in an increase in infection”.

What does the source list for Cc1cc(-c2ccc(S(=O)(=O)O)cc2)c2ccc3c(-c4ccc(S(=O)(=O)O)cc4)cc(C)nc3c2n1 [Bathocuproine disulfonic acid]?
GUS+ staining after co-cultivation [1, 4]: increases; Agrobacterium-mediated T-DNA transfer/delivery into cot-node cells [1, 5]: Increases; GUS+ staining with metal chelator ([1]; range from added chelator to added copper or iron): significantly increased

Which “damage and viability of Japonica rice meristem cultures” value [2] does the source give for O=[N+]([O-])[O-].[Ag+] [silver nitrate] here?
The value was “decreased damage and increased viability”.

Which “GUS+ staining after co-cultivation” value [1, 4] does the source give for O=S(=O)(O)c1ccc(-c2ccnc3c2ccc2c(-c4ccc(S(=O)(=O)O)cc4)ccnc23)cc1 [Bathophenanthroline disulfonic acid] here?
The value was “increases”.

What about the “Agrobacterium-mediated T-DNA transfer/delivery into cot-node cells” value [1, 5] of the same compound?
Its value is “Increases”.

Which results are given for N[C@@H](CCC(=O)N[C@@H](CS)C(=O)NCC(=O)O)C(=O)O [Glutathione]?
infection after co-cultivation (experiment #9) [1]: did not result in an increase in infection; GUS+ staining after co-cultivation [1, 4]: increases; Agrobacterium-mediated T-DNA transfer/delivery into cot-node cells [1, 5]: Increases

For O=C1O[C@H]([C@@H](O)CO)C(O)=C1O [Ascorbic acid], which “damage and viability of Japonica rice meristem cultures” value [2] is on record?
The value was “decreased damage and increased viability”.

Which results are given for O[C@H](CS)[C@H](O)CS (racemic) [DTT, dithiothreitol]?
GUS+ staining after co-cultivation [1, 4]: increases; Agrobacterium-mediated T-DNA transfer/delivery into cot-node cells [1, 5]: increased; Agrobacterium-mediated T-DNA transfer/delivery into cot-node cells ([1]; agent added to co-cultivation medium, listed as dithiothreitol): Increases; plant viability after Agrobacterium-mediated transformation of grape (grape): increase plant viability

Which “GUS+ foci at the 28-day interval” value [3] does the source give for N[C@H](CS)C(=O)O [D-cysteine] here?
Its value is “increase”.

And the “Agrobacterium-mediated T-DNA transfer/delivery into cot-node cells” value [1, 5]?
The value was “Increases”.

And the “GUS+ foci at the 5-day interval” value ([1]; amended to solid co-cultivation media)?
Its value is “increase”.

With N[C@@H](CSSC[C@H](N)C(=O)O)C(=O)O [L-cystine] as the compound, how does the “Agrobacterium-mediated T-DNA transfer/delivery into cot-node cells” value [1, 5] read?
Its value is “Increases”.

With O=S([O-])([O-])=S.[Na+].[Na+] [Na-thiosulfate, sodium thiosulfate] as the compound, how does the “Agrobacterium-mediated T-DNA transfer/delivery into cot-node cells” value [1] read?
Its value is “Increases”.

What about the “GUS+ staining after co-cultivation” value [1] of the same compound?
Its value is “increases”.
